We go through 4 molecules from paper PMC8956739, “A synthetic lipopeptide targeting top-priority multidrug-resistant Gram-negative pathogens” (Nature Communications, 2022).

As a reminder, the MTD is the largest dose that counted as tolerated.

Values after ≈ are worked out from the molar mass of the structure shown. Values joined by “and” are separate entries in the source; they are usually repeats but may differ in a detail not shown here. Identical values can stand only once. Residues, ends and D or L forms follow the SMILES beside them.

Data set [1] concerns P. aeruginosa ATCC 27853. The data set can be described thus: Neutropenic mouse bloodstream infection model. It counts as in vivo. To be noted: single IV dose 4 mg/kg; for Log10 CFU/mL blood at 4 h, Mean / Δlog10 CFU/mL blood (mean) / Log10 CFU/mL blood at 4 h, single mouse: 4 h; for Δlog10 CFU/mL blood (mean): treated minus control, mean of replicates; for Delta Log10 CFU/mL blood at 4 h, single mouse: treated mouse minus mean of vehicle mice. Summed up: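 Female Swiss mice made neutropenic with cyclophosphamide (150 mg/kg day −4, 100 mg/kg day −1), infected IV with 50 µL of 4 × 10^8 CFU/mL. Lipopeptide 4 mg/kg (free base) IV at 2 h post-inoculation, n = 3. Efficacy = Δlog10 CFU/mL blood versus saline at 4 h post-dose.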

The next data set relates to Swiss mice, kidney. The data set can be described thus: Nephrotoxicity in mice (kidney histopathology). It is filed as in vivo, mouse. To be noted: for Kidney histopathology (SQS Score): 72 mg/kg/d subcutaneously in six divided doses every 2 h, n = 3; for Kidney histopathology, mice with the SQS score: mouse, in vivo. An outline of the steps:
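Female Swiss mice (7-week-old, 22–28 g) received lipopeptides in saline either s.c. at 12 mg/kg ×6 every 2 h (total 72 mg/kg, n = 3) or i.p. at 20 or 25 mg/kg ×6 every 2 h (total 120 mg/kg, n = 6; 150 mg/kg, n = 3). Right kidney collected 20 h after last dose, fixed in 10% buffered formalin (pH 7.4), histology scored blinded.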

Data set [2] in a line: Acute toxicity in mice (maximum tolerated dose, IV bolus). Conditions: mouse, in vivo, iv, single IV bolus dose, replicates 1-4; read-out: MTD, single replicate. It counts as in vivo, mouse. On the procedure:
(§1) Lipopeptide solutions were prepared in 0.9% saline and stored at 4 °C before use. Swiss mice (female, 7-week-old, 22–28 g) were used in the study. A mouse was administered an intravenous bolus of the lipopeptide (mg/kg free base) through a lateral tail vein (≤0.1 mL). After the injection, the mouse was released back into the cage and monitored for clinical signs of toxicity from 0 to 24 h after injection as follows: every 10 min in the first 2 h, every half hour from 2 to 4 h, every hour from 4 to 12 h, and every 2 h from 12 to 24 h.

The test system of the next data set is Swiss mice. Described as above. It counts as in vivo, mouse. To be noted: replicates 1-4. On the procedure:
as §1

For another data set, the system named is A. baumannii ATCC 19606. It is filed as cell-based, Acinetobacter baumannii. Conditions: ATCC 19606. Summed up: (§2)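 Broth microdilution, CaMHB; MIC read as the antibacterial endpoint against ATCC reference strains and clinical isolates.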
The next data set deals with A. baumannii FADDI-AB030. It is filed as cell-based, Acinetobacter baumannii. Conditions: FADDI-AB030. An outline of the steps: (§3)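 Susceptibility: microdilution MIC in CaMHB.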
For the next data set, the system named is A. baumannii FADDI-AB034. It is filed as cell-based, Acinetobacter baumannii. Conditions: FADDI-AB034. Summed up:
as §3

Data set [3] relates to P. aeruginosa ATCC 27853. It is filed as cell-based, Pseudomonas aeruginosa. To be noted: ATCC 27853. An outline of the steps: as §2
For data set [4], the system named is P. aeruginosa FADDI-PA025. It is filed as cell-based, Pseudomonas aeruginosa. Conditions: FADDI-PA025. An outline of the steps: as §3
The test system of data set [5] is P. aeruginosa FADDI-PA038. It is filed as cell-based, Pseudomonas aeruginosa. Conditions: FADDI-PA038. An outline of the steps:
as §3

Data set [6] relates to K. pneumoniae FADDI-KP032. It is filed as cell-based, Klebsiella pneumoniae. To be noted: FADDI-KP032. An outline of the steps: as §3
Data set [7] relates to K. pneumoniae FADDI-KP065. It counts as cell-based, Klebsiella pneumoniae. To be noted: FADDI-KP065. Summed up: as §3
The test system of the next data set is human subjects. Conditions: in vivo; cited from earlier work.

`CC[C@@H]1NC(=O)[C@@H](CC(C)C)NC(=O)[C@H](CCN)NC(=O)[C@@H](NC(=O)[C@H](CN)NC(=O)[C@@H](NC(=O)[C@H](CCN)NC(=O)c2ccc(-c3ccccc3)cc2)[C@@H](C)O)CCNC(=O)[C@H]([C@@H](C)O)NC(=O)[C@H](CCN)NC(=O)[C@H](CCN)NC1=O` [Lipopeptide F477] (HELM PEPTIDE1{[O=C(c1ccc(-c2ccccc2)cc1)[*:2]].[Dab].T.[NC[C@H](N[*:1])C(=O)[*:2]].[Dab].[Dab].[dL].[Abu].[Dab].[Dab].T}$PEPTIDE1,PEPTIDE1,5:R3-11:R2$$$V2.0): the “Log10 CFU/mL blood at 4 h, Mean” value with P. aeruginosa ATCC 27853 [1] is on record as 3.39 Log10 CFU/mL blood. Besides, in the data set with P. aeruginosa ATCC 27853 [1] (4 mg/kg), the “Δlog10 CFU/mL blood (mean)” value is recorded as −3.89 log10 CFU/mL blood; the “Log10 CFU/mL blood at 4 h, single mouse” value was 3.09 Log10 CFU/mL blood and 3.94 Log10 CFU/mL blood and 3.15 Log10 CFU/mL blood; the “Delta Log10 CFU/mL blood at 4 h, single mouse” value (from here on “Delta Log10 CFU/mL blood at 4 h”) was -4.19 Log10 CFU/mL blood and -3.34 Log10 CFU/mL blood and -4.13 Log10 CFU/mL blood. Besides, in the data set with Swiss mice, kidney, the “Kidney histopathology (SQS Score)” value is “+1 (SQS + 1 = mild damage (overall score, 1 to <15))” and the “Kidney histopathology, mice with the SQS score” value (“Kidney histopathology, mice” below) is given as 1/3. Also, in [2], the MTD worked out at 10 mg/kg. Besides, the “MTD, single replicate” value in the data set on Swiss mice was 10.1 mg/kg and 11.1 mg/kg. The “MIC A. baumannii ATCC 19606” value against A. baumannii ATCC 19606 is 1 µg/mL (≈ 0.857 µM). For the same molecule, the “MIC A. baumannii FADDI-AB030” value with A. baumannii FADDI-AB030 is 0.5 µg/mL (≈ 0.428 µM). For the same molecule, the “MIC A. baumannii FADDI-AB034” value against A. baumannii FADDI-AB034 was determined as 0.25 µg/mL (≈ 0.214 µM). In the data set with P. aeruginosa ATCC 27853 [3], the “MIC P. aeruginosa ATCC 27853” value amounted to 1 µg/mL (≈ 0.857 µM) and the MIC, No Survanta amounted to 1 µg/mL (≈ 0.857 µM). Besides, the “MIC P. aeruginosa FADDI-PA025” value in [4] came out at 1 µg/mL (≈ 0.857 µM). The “MIC P. aeruginosa FADDI-PA038” value in data set [5] worked out at 1 µg/mL (≈ 0.857 µM). In addition, the “MIC K. pneumoniae FADDI-KP032” value in [6] is recorded as 0.25 µg/mL (≈ 0.214 µM). Further, the “MIC K. pneumoniae FADDI-KP065” value in [7] came to 0.25 µg/mL (≈ 0.214 µM).

Regarding SPR206, in the data set with human subjects, the “single dose at which neurotoxicity was observed” value is on record as “exceeding 200 mg”.

Turning to `CC[C@@H]1NC(=O)[C@@H](CC(C)C)NC(=O)[C@H](CCN)NC(=O)[C@@H](NC(=O)[C@H](CN)NC(=O)[C@@H](NC(=O)[C@H](CCN)NC(=O)c2cc(Cl)cc(Cl)c2)[C@@H](C)O)CCNC(=O)[C@H]([C@@H](C)O)NC(=O)[C@H](CCN)NC(=O)[C@H](CCN)NC1=O` [Lipopeptide F381] (HELM PEPTIDE1{[O=C(c1cc(Cl)cc(Cl)c1)[*:2]].[Dab].T.[NC[C@H](N[*:1])C(=O)[*:2]].[Dab].[Dab].[dL].[Abu].[Dab].[Dab].T}$PEPTIDE1,PEPTIDE1,5:R3-11:R2$$$V2.0), the “Log10 CFU/mL blood at 4 h, Mean” value with P. aeruginosa ATCC 27853 [1] came to 4.49 Log10 CFU/mL blood. Besides, in the data set with P. aeruginosa ATCC 27853 [1] (4 mg/kg), the “Δlog10 CFU/mL blood (mean)” value is reported as −3.45 log10 CFU/mL blood; the “Log10 CFU/mL blood at 4 h, single mouse” value is 4.47 Log10 CFU/mL blood and 4.87 Log10 CFU/mL blood and 4.12 Log10 CFU/mL blood; the “Delta Log10 CFU/mL blood at 4 h” value is -3.47 Log10 CFU/mL blood and -3.07 Log10 CFU/mL blood and -3.82 Log10 CFU/mL blood. Besides, in the data set with Swiss mice, kidney, the “Kidney histopathology (SQS Score)” value is recorded as “+1 (SQS + 1 = mild damage (overall score, 1 to <15))” and the “Kidney histopathology, mice” value is 1/3. The MTD in [2] was 5 mg/kg. In the data set on Swiss mice, the “MTD, single replicate” value was 4.7 mg/kg and 4 mg/kg. For the same molecule, in the data set on A. baumannii ATCC 19606, the “MIC A. baumannii ATCC 19606” value turned out to be 0.5 µg/mL (≈ 0.431 µM). Also, the “MIC A. baumannii FADDI-AB030” value against A. baumannii FADDI-AB030 is 0.25 µg/mL (≈ 0.215 µM). Moreover, in the data set on A. baumannii FADDI-AB034, the “MIC A. baumannii FADDI-AB034” value came out at 0.25 µg/mL (≈ 0.215 µM). In addition, in the data set with P. aeruginosa ATCC 27853 [3], the “MIC P. aeruginosa ATCC 27853” value is 0.25 µg/mL (≈ 0.215 µM) and the MIC, No Survanta stood at 0.5 µg/mL (≈ 0.431 µM). In addition, the “MIC P. aeruginosa FADDI-PA025” value in data set [4] was determined as 0.5 µg/mL (≈ 0.431 µM). Also, in data set [5], the “MIC P. aeruginosa FADDI-PA038” value turned out to be 1 µg/mL (≈ 0.862 µM). For the same molecule, the “MIC K. pneumoniae FADDI-KP032” value in data set [6] is under 0.125 µg/mL. Besides, the “MIC K. pneumoniae FADDI-KP065” value in data set [7] is given as 0.5 µg/mL (≈ 0.431 µM).

On to `CCCCCC(=O)N[C@@H](CCN)C(=O)N[C@H](C(=O)N[C@@H](CN)C(=O)N[C@H]1CCNC(=O)[C@H]([C@@H](C)O)NC(=O)[C@H](CCN)NC(=O)[C@H](CCN)NC(=O)[C@H](CC)NC(=O)[C@@H](CC(C)C)NC(=O)[C@H](CCN)NC1=O)[C@@H](C)O` [Lipopeptide F342] (HELM PEPTIDE1{[CCCCCC(=O)[*:2]].[Dab].T.[NC[C@H](N[*:1])C(=O)[*:2]].[Dab].[Dab].[dL].[Abu].[Dab].[Dab].T}$PEPTIDE1,PEPTIDE1,5:R3-11:R2$$$V2.0), for which, in the data set on P. aeruginosa ATCC 27853 [1], the “Log10 CFU/mL blood at 4 h, Mean” value was found to be 7.44 Log10 CFU/mL blood and the “Δlog10 CFU/mL blood (mean)” value is given as 0.17 log10 CFU/mL blood. In the data set with P. aeruginosa ATCC 27853 [1] (4 mg/kg), the “Log10 CFU/mL blood at 4 h, single mouse” value was 7.29 Log10 CFU/mL blood and 7.60 Log10 CFU/mL blood; the “Delta Log10 CFU/mL blood at 4 h” value is 0.0179 Log10 CFU/mL blood and 0.33 Log10 CFU/mL blood. Besides, in the data set with Swiss mice, kidney, the “Kidney histopathology (SQS Score)” value was 0 (SQS 0 = no significant change (overall score, <1)) and the “Kidney histopathology, mice” value is on record as 3/3. Further, in data set [2], the MTD was determined as 20 mg/kg. The “MTD, single replicate” value in the data set with Swiss mice stood at 18.4 mg/kg. For the same molecule, in the data set on A. baumannii ATCC 19606, the “MIC A. baumannii ATCC 19606” value was found to be 2 µg/mL (≈ 1.84 µM). The “MIC A. baumannii FADDI-AB030” value in the data set with A. baumannii FADDI-AB030 is 1 µg/mL (≈ 0.921 µM). The “MIC A. baumannii FADDI-AB034” value with A. baumannii FADDI-AB034 is on record as 1 µg/mL (≈ 0.921 µM). For the same molecule, in the data set on P. aeruginosa ATCC 27853 [3], the “MIC P. aeruginosa ATCC 27853” value turned out to be 0.5 µg/mL (≈ 0.461 µM) and the MIC, No Survanta came to 1 µg/mL (≈ 0.921 µM). Moreover, the “MIC P. aeruginosa FADDI-PA025” value in data set [4] was determined as 2 µg/mL (≈ 1.84 µM). The “MIC P. aeruginosa FADDI-PA038” value in [5] is given as 1 µg/mL (≈ 0.921 µM). Besides, the “MIC K. pneumoniae FADDI-KP032” value in data set [6] is reported as 0.25 µg/mL (≈ 0.23 µM). Moreover, the “MIC K. pneumoniae FADDI-KP065” value in data set [7] was 0.5 µg/mL (≈ 0.461 µM).
